Measurements published in paper PMC10500001, “Dual hypoxia-responsive supramolecular complex for cancer target therapy” (Nature Communications, 2023).
Where “and” joins values, the source holds several entries; their conditions need not be identical. Equal values may be shown once.

How the values were obtained:
PANC1 cells [1] = experiment: Cellular uptake mechanism with endocytosis inhibitors (flow cytometry); type: cell-based, human; settings: uptake of the SAC5A complex with the inhibitor, 4 replicates
Description: To examine the cellular uptake mechanism of SAC5A complex, PANC1 cells (3 × 10^5 cells/well) were seeded into the six-well plates and incubated overnight. The cells were pretreated with different endocytosis inhibitors for 1 h: chlorpromazine (CHP, 20 μM, an inhibitor of clathrin-mediated endocytosis), Amiloride (AMI, 500 μM, an inhibitor of macropinocytosis), Genistein (GEN, 200 μM, an inhibitor of caveolae-mediated endocytosis), methyl-β-cyclodextrin (M-β-CD, 5 mM, an inhibitor of lipid rafts-mediated endocytosis), the cells were also pre-incubated under 4 °C for 1 h (energy-dependent endocytosis). […] After that, the cells were collected and washed three times with PBS, and then analyzed by flow cytometry. All experiments were carried out four times. […]
Chlorpromazine (CHP): inhibitor of clathrin-mediated endocytosis; amiloride (AMI): inhibitor of macropinocytosis; Genistein (GEN): inhibitor of caveolae-mediated endocytosis; Methyl-β-cyclodextrin (M-β-CD): lipid rafts-mediated endocytosis; 4 °C: energy-mediated endocytosis. Data are presented as […]

PANC1 tumor-bearing mice = experiment: In vivo fluorescence imaging; settings: single mouse
Description: For animals and tumor model, male BALB/c nude mice at 5–6 weeks were purchased from Vital River Laboratory Animal Technology (Beijing, China). All animal experiments were performed according to the institutional animal care guidelines established by the Institutional Animal Care and Use Committee of Nankai University. To establish the PANC1 tumor-bearing mouse model, 1 × 10^6 PANC1 cells were injected subcutaneously into the right chest of BALB/c nude mice. After the tumor grows to a suitable size, the tumor was divided into small pieces and then subcutaneously incubated into the right chest of other mice. […] The ex vivo fluorescence imaging of major organs at 24 h post injection was imaged by IVIS. Fluorescent images were analyzed using Living Image 3.1 (Caliper Life Sciences).

PANC1 cells [2] = experiment: CLSM fluorescence imaging in living cells under normoxic and hypoxic conditions; type: cell-based, human; settings: 10 μM
Description: In this assay, SBE-β-CD was employed to generate CY5-DM@SBE-β-CD as a benchmark. […] The increased fluorescence manifested the hypoxia-selective release performance of the supramolecular complex.
PANC1 cells (1 × 10^5 cells/well) were seeded into the confocal imaging chambers. […] After a 6 h incubation under normoxic conditions, the culture medium was exchanged with fresh medium. Thereafter, the cells were incubated at 37 °C for 18 h under either normoxic or hypoxic conditions, respectively. Subsequently, the cells were fixed in 4% paraformaldehyde (PFA; Biosharp, Hefei, China) for 15 min, washed with PBS buffer three times and then imaged using CLSM. Cell nuclei were counterstained with DAPI (C0060, Solarbio, Beijing, China) for 5 min.

[3] = design: method as in earlier work; settings: ref 2 of the supplement; cited from earlier work
[4] = Competitive fluorescence titration of LCG@SC5A with NMP-BE; type: binding; settings: HEPES pH 7.4
Description: The complexation of SAC5A with reporter dye (RhB) was measured by direct fluorescence titrations. A mixed solution containing known amounts of SAC5A and RhB was sequentially injected into 2.50 mL RhB solution in a quartz cuvette. The dye concentrations in mixed solution and cuvette are the same to keep dye concentration constant in the course of titrations. The fluorescence intensity was measured (λex = 554 nm for RhB) before the first addition and after every addition until a plateau was reached. By fitting the fluorescence intensity (λem = 575 nm for RhB) according to a 1:1 host-guest binding stoichiometry, the association constant was obtained. SC5A (LCG) and SBE-β-CD (NR) used the same method.
The complexation of SAC5A with NMP-BE was measured by competitive fluorescence titrations. […] The fluorescence intensity was measured (λex = 554 nm for RhB) before the first addition and after every addition. The association constant was obtained by fitting fluorescence intensity (λem = 575 nm for RhB) according to a 1:1 competitive binding model. […]
2.8 Fluorescence titrations of SC5A and SBE-β-CD with NMP-BE
Supplementary Figure 14. Competitive fluorescence titration of LCG@SC5A (1.0/1.0 µM) with NMP-BE (up to 80 µM) in HEPES buffer (10 mM, pH = 7.4) at 25 ℃, λex =

[5] = design: method as in PMID 17268062; settings: cited from earlier work

N=C(N)NC(=O)c1nc(Cl)c(N)nc1N [AMI]
cellular uptake relative to Ctrl (flow cytometry) in presence of endocytosis inhibitor (PANC1 cells [1]): 144.29 and 129.79 and 106.33 and 103.16

CN(C)CCCN1c2ccccc2Sc2ccc(Cl)cc21 [CHP]
cellular uptake relative to Ctrl (flow cytometry) in presence of endocytosis inhibitor (PANC1 cells [1]): 134.50 and 125.70 and 108.52 and 108.27

CN1C(=CC=CC=CC2=[N+](C)c3ccccc3C2(C)C)C(C)(C)c2ccccc21 [CY5-DM, 1,1’,3,3,3’,3’-hexamethylindodicarbocyanine]
FL intensity of the tumor in vivo (PANC1 tumor-bearing mice; 1h post iv injection): 1.80E+09 and 1.62E+09
FL intensity of the tumor in vivo (PANC1 tumor-bearing mice; 3h post iv injection): 1.74E+09 and 1.60E+09
FL intensity of the tumor in vivo (PANC1 tumor-bearing mice; 6h post iv injection): 1.41E+09 and 1.34E+09 and 1.52E+09
FL intensity of the tumor in vivo (PANC1 tumor-bearing mice; 12h post iv injection): 1.33E+09 and 1.26E+09
FL intensity of the tumor in vivo (PANC1 tumor-bearing mice; 24h post iv injection): 8.57E+08 and 6.21E+08 and 9.14E+08
difference in fluorescence intensities normoxic versus hypoxic (PANC1 cells [2]): no significant difference

O=c1c(-c2ccc(O)cc2)coc2cc(O)cc(O)c12 [GEN]
cellular uptake relative to Ctrl (flow cytometry) in presence of endocytosis inhibitor (PANC1 cells [1]): 88.04 and 87.28 and 70.24 and 68.53

O=S(=O)(O)c1cc2c(O)c(c1)Cc1cc(S(=O)(=O)O)cc(c1O)Cc1cc(S(=O)(=O)O)cc(c1O)Cc1cc(S(=O)(=O)O)cc(c1O)Cc1cc(S(=O)(=O)O)cc(c1O)C2 [SC5A, sulfonated calix[5]arene]
1:1 binding affinity between SC5A and LCG [3]: 1.48 106 M−1
bonding ability to NMP-BE [4]: almost no bonding ability

C=C1/C=C\C(=O)N(C)CC(=O)NC(C(O)C(N)=O)C(=O)OC(C(C)CCCCCCCCCCCC(C)C)C(C)C(=O)N1 (stereo not shown) [rakicidin A]
hypoxia-selective cytotoxicity [5]: moderate hypoxia-selective cytotoxicity

M-β-CD
cellular uptake relative to Ctrl (flow cytometry) in presence of endocytosis inhibitor (PANC1 cells [1]): 121.64 and 117.67 and 92.45 and 90.16
